Source: patent US20240400542A1 (University of Virginia Patent Foundation, priority 2021, published 2024)

What was measured:
Jurkat proteomes = assay: In vitro competition of KY-26 labeling, gel-based chemical proteomics; assay type: binding, human; conditions: pretreatment 30 min, 37° C.: ATP 10-0.5 mM, KY-424 1 and 0.5 mM, then KY-26 5 μM
Experimental: (§1) Briefly, Jurkat cells were grown to 80% confluency and treated with either DMSO or probe at the designated final concentration (KY-26 or XO44, 1,000× stock in serum-free media (SFM)) and incubated at 37° C. with 5% CO2 for 30 min. Cells were harvested and lysed in PBS buffer containing EDTA-free protease inhibitors. Addition of the rhodamine fluorescent tag was accomplished by CuAAC and fluorescently labeled proteins visualized by SDS-PAGE and in-gel fluorescence scanning. For KY-26 and XO44 live cell treated samples, 50 μL aliquots of proteome were used for gel experiments. […]
(§2) Cell pellets were lysed in PBS buffer (PBS+a protease inhibitor (sold under the tradename PIERCE™, Thermo Fisher Scientific, Waltham, Massachusetts, United States of America), EDTA free) by sonicating 3 times for 1 second×20% amplitude. […] Protein concentrations were measured using the Bio-Rad DC protein assay (Bio-Rad Laboratories, Hercules, California, United States of America), and fractions were diluted to a concentration of 1 mg/mL in PBS. […] 30 μL of each sample were separated by SDS-PAGE and analyzed by in-gel fluorescence scanning for the rhodamine azide tag. […]
In addition to solution reactivity, activity of KY-26 and XO44 in proteomes was compared using gel-based chemical proteomics. […] Probe-modified proteins were visualized by SDS-PAGE and in-gel fluorescence scanning. […]

recombinant human CDK2 = recombinant human CDK2 (Homo sapiens, UniProt P24941); assay: Competition of KY-26 ABP labeling of recombinant CDK2 in HEK293T lysates; assay type: binding; conditions: then 2.5 μM KY-26 30 minutes
Experimental: Gateway cloning was performed to generate recombinant human CDK2 (containing a FLAG tag) overexpression plasmid (see FIG. 11) and recombinant human CDK2 was overexpressed in HEK293T mammalian cells. KY-26 and TH211 activity-based probe (ABP) labeling of the recombinant human CDK2 was performed. Briefly, recombinant human CDK2 overexpressed HEK293T lysates were incubated […] with various concentrations of TH211 (a broad-spectrum kinase ABP) or KY-26 (a targeted covalent kinase ABP) for 30- and 60-minutes. Western blots confirmed CDK2 overexpression with rabbit anti-FLAG and goat anti-rabbit 650 antibodies for samples incubated with KY-26 or TH211 probes.
Recombinant human CDK2 overexpressed HEK293T lysates were incubated with KY-424 (1 μM-10 μM) or free ATP (1 μM-10 μM) for 30 minutes at 37° C. Subsequently, samples were incubated with 2.5 μM KY-26 for 30 minutes at 37° C. […] Based on this finding, the study was performed using additional concentrations of KY-424 ([…]) or free ATP (400 μM-10 mM) for 30 minutes at 37° C. Again, samples were then incubated with 2.5 μM KY-26 for 30 minutes at 37° C. […] Lysates from 24- (KY-424 competition) and 48-hour transfections (ATP competition) were used.

[1] = HPLC solution reactivity of probe with n-butylamine (lysine mimetic); assay type: physicochemical; conditions: TMG base, 0° C., KY-26 compared with p-cresol
Experimental: (§3) Briefly, reaction progress of KY-26 or XO44 with p-cresol or n-butylamine (16.5 μmol, 3.3 eq.) in the presence of TMG base (1,1,3,3-tetramethylguanidine, 1.1 eq) was evaluated by monitoring probe consumption and quantified based on the signal from the caffeine standard using HPLC. Synthetic peptide reactions were conducted by mixing the peptide (Ac-RLNERHYGGLTGLNK-NH2, 50 nmol, 1.0 eq.) with 1.1 eq of TMG. KY-26 (550 nmol, 11.0 eq) was added to the mixture and the reaction was kept at 37° C. until the reaction achieved at least 50% conversion.
(§4) More particularly, an acetonitrile solution of p-cresol or n-butylamine (16.5 μmol, 3.3 eq.) was mixed with 1.1 eq of TMG. KY-26 or XO44 in ACN:DMF=6:4 (5 μmol, 1.0 eq.) was added to the mixture and the reaction was kept at 0° C. The final molarity for KY-26 or XO44 is 10 mM. Aliquots (50 μl) of the reaction were taken and quenched by adding acetic acid (0.5 M final, 5.0 μmol) and caffeine standard (0.05 M final, 0.5 μmol) at ten-minute intervals for 1.5 hrs. 1.0 μL sample was injected and analyzed by reverse-phase HPLC with mobile phases A (H2O, 0.1% AcOH) and B (CH3CN, 0.1% AcOH) with a gradient of 0-15-85-100% B in 0-0.5-6.5-7 min. UV measurements taken at 254 nm. Reaction progress was evaluated by monitoring KY-26 or XO44 consumption and quantified based on the signal from the caffeine standard. […]

Jurkat cells = assay: Gel-based chemical proteomics, live cell probe labeling; parameters: species or system human
Experimental: as §1, with “experiments. For KY-26 lysate labeling, 49 μL aliquots of cell lysate were used for each dose and time point before adding 1 μL of 50× KY-26 stock (5 μM final) and incubated for 30 min at 37° C.” for “experiments.”
as §2

[2] = HPLC solution reactivity of probe with p-cresol (tyrosine mimetic); assay type: physicochemical; conditions: UV 254 nm, TMG base, 0° C., longest time point tested 90 min
Experimental: as §3, §4

| Structure (SMILES) | blockade of KY-26 labeling of proteomes (Jurkat proteomes) | blockade of KY-26 labeling of recombinant human CDK2 (recombinant human CDK2; 40 nM KY-424, 30 minutes at 37° C., HEK293T lysates) | competition of KY-26 ABP labeling of recombinant human CDK2 (recombinant human CDK2; KY-424 1 μM-10 μM, 30 minutes at 37° C.) | reaction of probe with n-butylamine [1] | probe labeling in live cells, dependence on concentration and time (Jurkat cells; 2.5-25 μM, 15-120 min) | proteome reactivity, in-gel fluorescence intensity compared with XO44 (Jurkat cells; live Jurkat cells, 5 μM, 30 min, 37° C.) | time to near-complete depletion of probe in reaction with p-cresol [2] |
| --- | --- | --- | --- | --- | --- | --- | --- |
| CCCNC(=O)c1cc(Nc2cc(C3CC3)[nH]n2)nc(N2CCN(C(=O)c3ccc(S(=O)(=O)n4cnc(-c5ccccc5)n4)cc3)CC2)n1 [KY-424, 6-((5-cyclopropyl-1H-pyrazol-3-yl)amino)-2-(4-(4-((3-phenyl-1H-1,2,4-triazol-1-yl)sulfonyl)benzoyl)piperazin-1-yl)-N-propylpyrimidine-4-carboxamide] | concentration-dependent blockade | approximately 50% | potently competes |  |  |  |  |
| C#CCNC(=O)c1cc(Nc2cc(C3CC3)[nH]n2)nc(N2CCN(C(=O)c3ccc(S(=O)(=O)n4cnc(-c5ccccc5)n4)cc3)CC2)n1 [KY-26, 6-((5-cyclopropyl-1H-pyrazol-3-yl)amino)-2-(4-(4-((3-phenyl-1H-1,2,4-triazol-1-yl)sulfonyl)benzoyl)piperazin-1-yl)-N-(prop-2-yn-1-yl)pyrimidine-4-carboxamide] |  |  |  | reduced activity | concentration- and time-dependent probe labeling | substantially increased reactivity | ≤ 20 min |
| Nc1ncnc2c1ncn2[C@@H]1O[C@H](COP(=O)(O)OP(=O)(O)OP(=O)(O)O)[C@@H](O)[C@H]1O [ATP, adenosine triphosphate, reference compound] | concentration-dependent blockade |  |  |  |  |  |  |
